According to patent publication US6759416B2, “Anticancer conjugates of camptothecin and unsaturated fatty acids” (priority 2002, dated 2004):
Where two headings read alike, the source gives them in different places.

Tests used:
L1210 leukemia cells = experiment: Anticancer activity assay in vitro: 48-h 3H-thymidine incorporation (proliferation) assay; type: cell-based, murine; conditions: for IC50: L1210 leukemia cells, 48-h proliferation assay, 3H-thymidine uptake, mean of three experiments; for DNA fragmentation / apoptosis: L1210 cells, data not shown
Experimental: L1210 leukemia cells (2.5×10^4cells/well) in RPMI-1640 medium supplemented with 10% FCS medium were seeded in a 96-well plate. Drugs (10 μL) at increasing concentrations were added to each well, and the total volume was adjusted to 0.1 mL/well using the same medium. HCPT was used as a positive control. The plate was incubated for 24 h at 37° C. followed by addition of 10 μL of ^3H-thymidine (20 μCi/mL). The plate was incubated for another 24 h. The cells were harvested, and radioactivity was counted using the Packard Matrix 96 beta counter. The results were expressed as the minimal concentration that inhibits ^3H-thymidine incorporation by 50% (IC50). Percent growth inhibition was calculated as follows: [(total cpm—experimental cpm)/total cpm]×100. […] Doxorubicin (Dox) was used as a positive control.

L1210 leukemia = system: L1210 leukemia
Experimental: The compounds were tested in male BDF1 mice (18-22 g, 6 mice/group) bearing L1210 leukemia cells. Tumor lines were propagated in DBA/2 female mice with cell (10^5 cells/mouse) transfer every 7 days. Diluted ascitic fluid (0.1 mL) containing 10^5 leukemia cells were inoculated, i.p. in mice on day 0. Mice were injected with 0.1 mL of drug preparation.
A conjugate of HCPT and piperidinopiperidine, PP-HCPT, was synthesized, and its antitumor activity was evaluated against L1210 leukemia in mice.
DHA-HCPT was also tested using multiple doses (days 1, 5 and 9).

Lewis lung carcinoma = experiment: Antitumor activity against Lewis lung carcinoma in mice; type: in vivo
Experimental: For example, at a dose of 120 mg/kg, it inhibited tumor growth by 83% while the bodyweight loss was only 10%. The parent HCPT inhibited tumor growth by 57% at a dose of 20 mg/kg with a 24% weight loss. The group treated with DHA-HCPT also lived longer.

colon 38 carcinoma = experiment: Antitumor activity against colon 38 carcinoma in mice (single dose, early stage and late stage); type: in vivo; conditions: for weight loss: stated as loss
Text: However, DHA-HCPT (weight loss of 16%) is less toxic than cisplatin (weight loss of 20%).
The first experiment was designed to evaluate the antitumor activity of the drugs against early tumor, i.e., the tumors were transplanted on day 0, and the drugs were given beginning the next day. The second experiment was designed to evaluate the drug's activity against the established tumor, i.e., the tumors were transplanted on day 0, and the drugs were given when the tumors grew to 3-4 mm in size.
In the late tumor model, at a dose of 100 mg/kg, DHA-HCPT inhibited tumor growth by 80% (Table 10).

[1] = 120 mg/kg i.p. on days 1, 5 and 9
[2] = early stage, 67 mg/kg i.p. on days 1, 5 and 9
[3] = early stage, 100 mg/kg i.p. on days 1, 5 and 9
[4] = late stage, 100 mg/kg i.p. on days 9, 13 and 17
[5] = 100 mg/kg i.p. on days 1, 5, and 9
[6] = L1210, 48-h cell growth inhibition assay
[7] = 5 mg/kg i.p. on days 1, 5, and 9
[8] = 125 mg/kg i.p. on days 1, 5 and 9
[9] = 150 mg/kg i.p. on days 1, 5 and 9

COc1cccc2c1C(=O)c1c(O)c3c(c(O)c1C2=O)C[C@@](O)(C(=O)CO)C[C@@H]3O[C@H]1C[C@H](N)[C@H](O)[C@H](C)O1 [Dox, Doxorubicin, reference compound]
IC50 (L1210 leukemia cells; Mus musculus): 180 ± 90 nM

CC[C@@]1(O)C(=O)OCc2c1cc1n(c2=O)Cc2cc3cc(O)ccc3nc2-1 [HCPT, 10-hydroxycamptothecin, reference compound]
% ILS (L1210 leukemia; 15 mg/kg i.p. on day 1): 77%
% Weight change (L1210 leukemia; 15 mg/kg i.p. on day 1): −10%
bodyweight loss (L1210 leukemia; 15 mg/kg, one dose, stated as loss): 10%
% ILS (L1210 leukemia; 20 mg/kg i.p. on day 1): 108%
30-day survivors (L1210 leukemia; 20 mg/kg i.p. on day 1, 6 mice/group): 0
% Weight change (L1210 leukemia; 20 mg/kg i.p. on day 1, BDF1 mice, day 0 to lightest weight): −16%
% ILS (Lewis lung carcinoma; 20 mg/kg i.p. on day 1): 16%
% TGI (Lewis lung carcinoma; 20 mg/kg i.p. on day 1): 57%
% Weight change (Lewis lung carcinoma; 20 mg/kg i.p. on day 1): −24%
Tumor weight (g ± SD) (Lewis lung carcinoma; 20 mg/kg i.p. on day 1, control 1.77 ± 0.89): 0.76 ± 0.59 g
weight loss (Lewis lung carcinoma; 20 mg/kg, one dose i.p., stated as loss): 24%
DNA fragmentation / apoptosis (L1210 leukemia cells): caused DNA fragmentation and cells died by apoptosis
IC50 (L1210 leukemia cells): 230 nM

CC/C=C\C/C=C\C/C=C\C/C=C\C/C=C\C/C=C\CCC(=O)Nc1ccc(CN2CCN(C(=O)Oc3ccc4nc5c(cc4c3)Cn3c-5cc4c(c3=O)COC(=O)[C@]4(O)CC)CC2)cc1 (stereo in doubt) [DHA-HCPT, 10-[4-[[4-(cis-4,7,10,13,16,19-Docosahexenoyl)amino]benzyl]-1-piperazino]carbonyl-oxycamptothecin]
% ILS (L1210 leukemia; 40 mg/kg i.p. on day 1): 108%
% Weight change (L1210 leukemia; 40 mg/kg i.p. on day 1): 2%
30-day survivors (L1210 leukemia; 40 mg/kg i.p. on day 1, 6 mice/group): 0
% ILS (L1210 leukemia; 60 mg/kg i.p. on day 1): 138%
% Weight change (L1210 leukemia; 60 mg/kg i.p. on day 1): 1%
30-day survivors (L1210 leukemia; 60 mg/kg i.p. on day 1, 6 mice/group): 0
% ILS (L1210 leukemia; [1]): 323%
% Weight change (L1210 leukemia; [1]): −12%
% ILS (L1210 leukemia; 180 mg/kg i.p. on day 1): 154%
% Weight change (L1210 leukemia; 180 mg/kg i.p. on day 1): −12%
weight loss (colon 38 carcinoma; 120 mg/kg given once): 16%
% TGI (colon 38 carcinoma; 120 mg/kg i.p. on day 1): 91%
% Weight change (colon 38 carcinoma; 120 mg/kg i.p. on day 1): −16%
Tumor weight (g ± SD) (colon 38 carcinoma; 120 mg/kg i.p. on day 1, control 1.20 ± 0.84): 0.11 ± 0.09 g
% TGI (colon 38 carcinoma; [2]): 43%
% Weight change (colon 38 carcinoma; [2]): −10%
Tumor weight (g ± SD) (colon 38 carcinoma; early stage, 67 mg/kg i.p. on days 1, 5 and 9, control 1.13 ± 0.39): 0.64 ± 0.50 g
% TGI (colon 38 carcinoma; [3]): 78%
% Weight change (colon 38 carcinoma; [3]): −12%
Tumor weight (g ± SD) (colon 38 carcinoma; early stage, 100 mg/kg i.p. on days 1, 5 and 9, control 1.13 ± 0.39): 0.25 ± 0.22 g
% TGI (colon 38 carcinoma; early stage, 150 mg/kg i.p. on days 1 and 5): 84%
Tumor weight (g ± SD) (colon 38 carcinoma; early stage, 150 mg/kg i.p. on days 1 and 5, control 1.13 ± 0.39): 0.18 ± 0.12 g
% TGI (colon 38 carcinoma; [4]): 80%
% Weight change (colon 38 carcinoma; [4]): −14%
Tumor weight (g ± SD) (colon 38 carcinoma; late stage, 100 mg/kg i.p. on days 9, 13 and 17, control 1.13 ± 0.39): 0.22 ± 0.14 g
% TGI (colon 38 carcinoma; late stage, 150 mg/kg i.p. on days 9 and 13): 79%
Tumor weight (g ± SD) (colon 38 carcinoma; late stage, 150 mg/kg i.p. on days 9 and 13, control 1.13 ± 0.39): 0.24 ± 0.18 g
% ILS (Lewis lung carcinoma; 80 mg/kg i.p. on day 1): 23%
% TGI (Lewis lung carcinoma; 80 mg/kg i.p. on day 1): 48%
% Weight change (Lewis lung carcinoma; 80 mg/kg i.p. on day 1): −5%
Tumor weight (g ± SD) (Lewis lung carcinoma; 80 mg/kg i.p. on day 1, control 1.77 ± 0.89): 0.93 ± 0.53 g
% TGI (Lewis lung carcinoma; [5]): 88%
% Weight change (Lewis lung carcinoma; [5]): −9%
Tumor weight (g ± SD) (Lewis lung carcinoma; 100 mg/kg i.p. on days 1, 5, and 9, control 1.20 ± 0.61): 0.15 ± 0.10 g
% ILS (Lewis lung carcinoma; 120 mg/kg i.p. on day 1): 33%
% TGI (Lewis lung carcinoma; 120 mg/kg i.p. on day 1): 83%
% Weight change (Lewis lung carcinoma; 120 mg/kg i.p. on day 1): −10%
Tumor weight (g ± SD) (Lewis lung carcinoma; 120 mg/kg i.p. on day 1, control 1.77 ± 0.89): 0.31 ± 0.18 g
cures (Lewis lung carcinoma; 120 mg/kg, multiple doses (days 1, 5, and 9)): 50%
bodyweight loss (Lewis lung carcinoma; 120 mg/kg, one dose i.p., stated as loss): 10%
fold less potent than HCPT (IC50) (L1210 leukemia cells; [6]): 8 fold
DNA fragmentation / apoptosis (L1210 leukemia cells): caused DNA fragmentation and cells died by apoptosis
IC50 (L1210 leukemia cells): 1800 nM

N.N.[Cl][Pt][Cl] [Cisplatin, reference compound]
% TGI (colon 38 carcinoma; 10 mg/kg i.p. on day 1): 88%
% Weight change (colon 38 carcinoma; 10 mg/kg i.p. on day 1): −20%
Tumor weight (g ± SD) (colon 38 carcinoma; 10 mg/kg i.p. on day 1, control 1.20 ± 0.84): 0.14 ± 0.07 g
weight loss (colon 38 carcinoma; given once (10 mg/kg per Table 8)): 20%
% TGI (Lewis lung carcinoma; [7]): 73%
% Weight change (Lewis lung carcinoma; [7]): −19%
Tumor weight (g ± SD) (Lewis lung carcinoma; 5 mg/kg i.p. on days 1, 5, and 9, control 1.20 ± 0.61): 0.32 ± 0.17 g

O=P1(N(CCCl)CCCl)NCCCO1 (stereo not drawn) [Cyclophosphamide, reference compound]
% ILS (L1210 leukemia; [8]): 173%
% Weight change (L1210 leukemia; [8]): −15%
30-day survivors (cures) (L1210 leukemia; 125 mg/kg i.p. on days 1, 5 and 9, 6 mice/group): 0
% ILS (L1210 leukemia; 200 mg/kg i.p. on day 1): 123%
% Weight change (L1210 leukemia; 200 mg/kg i.p. on day 1): −9%
30-day survivors (L1210 leukemia; 200 mg/kg i.p. on day 1, 6 mice/group): 0

CC[C@@]1(O)C(=O)OCc2c1cc1n(c2=O)Cc2cc3cc(OC(=O)N4CCC(N5CCCCC5)CC4)ccc3nc2-1 [PP-HCPT, 10-[4-(1-Piperidino)-1-piperidino]carbonyloxycamptothecin]
% ILS (L1210 leukemia; 37 mg/kg i.p. on day 1): 46%
% Weight change (L1210 leukemia; 37 mg/kg i.p. on day 1): 5%
30-day survivors (L1210 leukemia; 37 mg/kg i.p. on day 1, 6 mice/group): 0
% ILS (L1210 leukemia; 73 mg/kg i.p. on day 1): 77%
% Weight change (L1210 leukemia; 73 mg/kg i.p. on day 1): 2%
30-day survivors (L1210 leukemia; 73 mg/kg i.p. on day 1, 6 mice/group): 0
% ILS (L1210 leukemia; [9]): 123%
% Weight change (L1210 leukemia; [9]): −18%
fold less potent than DHA-HCPT (IC50) (L1210 leukemia cells; [6]): 16 fold
fold less potent than HCPT (IC50) (L1210 leukemia cells; [6]): 128 fold
IC50 (L1210 leukemia cells): 30000 nM
